In US10519151B2, “Substituted [1,2,4]triazolo[4,3-A]pyridines, their preparation and their use as pharmaceuticals” (NEOMED Institute, priority 2016, dated 2019) one finds IC50 data, which are given here for 27 compounds.

This assay has as its system human C-Myc gene transcription in MV-4-11 cells. Briefly: Transcription of human C-Myc in human leukemic MV-4-11 cells (QuantiGene 2.0 assay). The format is cell-based. The note with it: MV4-11, 4 hours treatment, C-Myc mRNA by QuantiGene 2.0, read-out: IC50 (inhibition of C-Myc transcription). The method, then: Transcription of Human C-Myc in Human Leukemic MV-4-11 Cells
The effect of compounds on transcription of human C-Myc gene is monitored in human B-myelomonocytic leukemia cell line MV-4-11 (from American Type Culture Collection (ATCC), Manassas, Va., USA) using QuantiGene 2.0 assay kit (Affymetrix, Santa Clara, Calif., USA).
Typically, 8,000 MV-4-11 cells are plated in sterile 96-well plates (Costar #3598 from Fisher Scientific Canada, Ottawa, Ontario, Canada) in Iscove's medium supplemented with 10% fetal bovine serum, glutamine (2 mM), and penicillin (100 I.U.) and streptomycin (100 μg/mL) (all from Wisent Inc., St. Bruno, Quebec, Canada). Compounds are dissolved in DMSO at 30 mM. A series of 1:3 dilutions are first made in DMSO, and further […] dilutions are made in serum-containing cell culture media. The final concentration of DMSO is 0.1% in cell culture media. After cells are treated with various concentrations of test compound for 4 hours, cells are lysed using Quantigene 2.0 sample processing kit (#QS0100). C-Myc mRNA is detected using a QuantiGene 2.0 assay kit (#QS0009) with gene-specific probe to human C-Myc (#SA-50182) following the manufacturer's recommendations. Luminescence signals are read on Flexstation II microplate reader (Molecular Devices, Sunnyvale, Calif., USA).

Usually IC50 stands for the concentration that inhibits the measured activity by half.

Regarding `Cc1cc(-c2ccc3nnc(C4(c5cccc(C(F)(F)F)c5)CC4)n3c2)cn(C)c1=O` [Compound 20, 1,3-dimethyl-5-[3-[1-[3-(trifluoromethyl)phenyl]cyclopropyl][1,2,4]-triazolo[4,3-a]pyridin-6-yl]pyridin-2-one], the half-inhibitory concentration (IC50) came to 61 nM. On to `Cc1cc(-c2ccc3nnc(Cc4ccc(Cl)cc4)n3c2)cn(C)c1=O` [Compound 4, 5-[3-[(4-chlorophenyl)methyl]-[1,2,4]triazolo[4,3-a]pyridin-6-yl]-1,3-dimethyl-pyridin-2-one], for which the IC50 was found to be 156 nM. Then `Cc1cc(-c2ccc3nnc(CCc4ccccc4)n3c2)cn(C)c1=O` [Compound 26, 1,3-dimethyl-5-[3-(2-phenylethyl)-[1,2,4]triazolo[4,3-a]pyridin-6-yl]pyridin-2-one], with 835 nM; and `Cc1cc(-c2ccc3nnc(C4(c5cccc(Cl)c5)CC4)n3c2)cn(C)c1=O` [Compound 14, 5-[3-[1-(3-chlorophenyl)cyclopropyl]-[1,2,4]triazolo[4,3-a]pyridin-6-yl]-1,3-dimethyl-pyridin-2-one], with 89 nM.

In the case of `Cc1cc(-c2ccc3nnc(Cc4ccccc4)n3c2)cn(C)c1=O` [Compound 1, 5-(3-benzyl-[1,2,4]triazolo[4,3-a]pyridin-6-yl)-1,3-dimethyl-pyridin-2-one], the IC50 was determined as 253 nM.

Turning to `Cc1cc(-c2ccc3nnc(C4(c5ccccc5)CC4)n3c2)cn(C)c1=O` [Compound 11, 1,3-dimethyl-5-[3-(1-phenylcyclopropyl)-[1,2,4]triazolo[4,3-a]pyridin-6-yl]pyridin-2-one], the IC50 came out at 90 nM.

Turning to `Cc1cc(-c2ccc3nnc(Cc4ccc(F)cc4)n3c2)cn(C)c1=O` [Compound 3, 5-[3-[(4-fluorophenyl)methyl]-[1,2,4]triazolo[4,3-a]pyridin-6-yl]-1,3-dimethyl-pyridin-2-one], the half-inhibitory concentration (IC50) was determined as 495 nM. Then `Cc1cc(-c2ccc3nnc(C(C)(C)c4ccccc4)n3c2)cn(C)c1=O` [Compound 27, 1,3-dimethyl-5-[3-(1-methyl-1-phenyl-ethyl)-[1,2,4]triazolo[4,3-a]-pyridin-6-yl]pyridin-2-one], with 227 nM; and `Cc1cc(-c2ccc3nnc([C@@H](C)c4ccccc4)n3c2)cn(C)c1=O` [Compound 7, 1,3-dimethyl-5-[3-[(1 S)-1-phenylethyl]-[1,2,4]triazolo[4,3-a]pyridin-6-yl]pyridin-2-one], with 85 nM; and `Cc1cc(-c2ccc3nnc(C4(c5cccc(F)c5)CC4)n3c2)cn(C)c1=O` [Compound 21, 5-[3-[1-(3-fluorophenyl)cyclopropyl]-[1,2,4]triazolo[4,3-a]pyridin-6-yl]-1,3-dimethyl-pyridin-2-one], with 158 nM.

`Cc1cc(-c2ccc3nnc(Cc4ccc(C(F)(F)F)cc4)n3c2)cn(C)c1=O` [Compound 10, 1,3-dimethyl-5-[3-[[4-(trifluoromethyl)phenyl]methyl][1,2,4]triazolo[4,3-a]pyridin-6-yl]pyridin-2-one]: the 50% inhibitory concentration (IC50) was found to be 484 nM.

In the case of `Cc1cc(-c2ccc3nnc(C(C)(C)c4cccc(Cl)c4)n3c2)cn(C)c1=O` [Compound 24, 5-[3-[1-(3-chlorophenyl)-1-methyl-ethyl]-[1,2,4]triazolo[4,3-a]pyridin-6-yl]-1,3-dimethyl-pyridin-2-one], the 50% inhibitory concentration (IC50) worked out at 90 nM. Next, `Cc1cc(-c2ccc3nnc([C@H](C)c4ccccc4)n3c2)cn(C)c1=O` [Compound 12, 1,3-dimethyl-5-[3-[(1R)-1-phenylethyl]-[1,2,4]triazolo[4,3-a]pyridin-6-yl]pyridin-2-one]: 100 nM; `Cc1cc(-c2ccc3nnc(C4(c5ccc(Cl)cc5)CC4)n3c2)cn(C)c1=O` [Compound 15, 5-[3-[1-(4-chlorophenyl)cyclopropyl]-[1,2,4]triazolo[4,3-a]pyridin-6-yl]-1,3-dimethyl-pyridin-2-one]: 250 nM; `Cc1cc(-c2ccc3nnc(C(C)(C)c4ccc(Cl)cc4)n3c2)cn(C)c1=O` [Compound 17, 5-[3-[1-(4-chlorophenyl)-1-methyl-ethyl]-[1,2,4]triazolo[4,3-a]pyridin-6-yl]-1,3-dimethyl-pyridin-2-one]: 590 nM. For the compound `Cc1cc(-c2ccc3nnc(Cc4cccc(F)c4)n3c2)cn(C)c1=O` [Compound 13, 5-[3-[(3-fluorophenyl)methyl]-[1,2,4]triazolo[4,3-a]pyridin-6-yl]-1,3-dimethyl-pyridin-2-one], the IC50 came out at 269 nM. In the case of `Cc1cccc(C2(c3nnc4ccc(-c5cc(C)c(=O)n(C)c5)cn34)CC2)c1` [Compound 19, 1,3-dimethyl-5-[3-[1-(m-tolyl)cyclopropyl]-[1,2,4]triazolo[4,3-a]pyridin-6-yl]pyridin-2-one], the IC50 came out at 88 nM. Next, `Cc1cc(-c2ccc3nnc(Cc4cccc(C(F)(F)F)c4)n3c2)cn(C)c1=O` [Compound 5, 1,3-dimethyl-5-[3-[[3-(trifluoromethyl)phenyl]methyl]-[1,2,4]triazolo[4,3-a]pyridin-6-yl]pyridin-2-one]: 146 nM; `Cc1cc(-c2ccc3nnc(C4(c5ccccc5)CCCCC4)n3c2)cn(C)c1=O` [Compound 25, 1,3-dimethyl-5-[3-(1-phenylcyclohexyl)-[1,2,4]triazolo[4,3-a]pyridin-6-yl]pyridin-2-one]: 54 nM; `Cc1cc(-c2ccc3nnc(C4(c5ccc(Cl)cc5)CCC4)n3c2)cn(C)c1=O` [Compound 18, 5-[3-[1-(4-chlorophenyl)cyclobutyl]-[1,2,4]triazolo[4,3-a]pyridin-6-yl]-1,3-dimethyl-pyridin-2-one]: 563 nM. Then `Cc1ccc(C2(c3nnc4ccc(-c5cc(C)c(=O)n(C)c5)cn34)CC2)cc1` [Compound 16, 1,3-dimethyl-5-[3-[1-(p-tolyl)cyclopropyl]-[1,2,4]triazolo[4,3-a]pyridin-6-yl]pyridin-2-one], with 226 nM; and `Cc1cc(-c2ccc3nnc(Cc4ccccc4F)n3c2)cn(C)c1=O` [Compound 6, 5-[3-[(2-fluorophenyl)methyl]-[1,2,4]triazolo[4,3-a]pyridin-6-yl]-1,3-dimethyl-pyridin-2-one], with 461 nM.

For the compound `Cc1cc(-c2ccc3nnc(CC4CCCCC4)n3c2)cn(C)c1=O` [Compound 8, 5-[3-(cyclohexylmethyl)-[1,2,4]triazolo[4,3-a]pyridin-6-yl]-1,3-dimethyl-pyridin-2-one], the IC50 worked out at 158 nM. Consider `Cc1cc(-c2ccc3nnc(C4(c5ccccc5)CCCC4)n3c2)cn(C)c1=O` [Compound 23, 1,3-dimethyl-5-[3-(1-phenylcyclopentyl)-[1,2,4]triazolo[4,3-a]pyridin-6-yl]pyridin-2-one], for which the 50% inhibitory concentration (IC50) was 85 nM. Then `Cc1cc(-c2ccc3nnc(CC4CCOCC4)n3c2)cn(C)c1=O` [Compound 2], with 2340 nM; and `Cc1cc(-c2ccc3nnc(C4(c5ccccc5)CCC4)n3c2)cn(C)c1=O` [Compound 22, 1,3-dimethyl-5-[3-(1-phenylcyclobutyl)-[1,2,4]triazolo[4,3-a]pyridin-6-yl]pyridin-2-one], with 74 nM. Next, `Cc1cc(-c2ccc3nnc(Cc4cc(F)cc(F)c4)n3c2)cn(C)c1=O` [Compound 9, 5-[3-[(3,5-difluorophenyl)methyl]-[1,2,4]triazolo[4,3-a]pyridin-6-yl]-1,3-dimethyl-pyridin-2-one]: 183 nM.
